Here are results for one substance from patent US11523995B2, “Compositions and methods for ablating niche cells in testis and other epithelial cells and methods relating thereto” (Duke University, priority 2017, dated 2022).

In test [1] the test system is Sertoli cells. Nature of the test: Neonatal testis Sertoli cell selective depletion in vitro (testis tissue culture, immunofluorescence). The format is cell-based, mouse. The following applies: 0.02% BC 10 min, cultured 4 days. As to the method:
(§1) Fragments of the mouse testis were incubated with 0.02% BC for 10 min. After washing several times with PBS, tissues were placed atop 1.5% agarose blocks (214530; Difco), prepared and placed in 6 well tissue culture plates (353046; Falcon) with ˜500 μl of 10% FBS+DMEM (11995-065; Gibco) to reach halfway up the side of the block. After culture, tissues were washed in PBS and fixed for immunofluorescence. The dog testis tissues were incubated with 0.02% or 0.03% BC for 10 min and cultured with 10% KnockOut Serum Replacement (KSR) (Invitrogen; 10828-028)+DMEM (Yokonishi, T., et al. Methods in Molecular Biology 927: 479-488 (2013)). The culture incubator was supplied with 5% (vol/vol) carbon dioxide in air and maintained at 37° C.
For cultured neonatal mouse testes, whole-mount immunofluorescence analysis was performed. Samples were fixed overnight with 4% (wt/vol) paraformaldehyde in PBS at 4° C. After several washes in PBTx (PBS plus 1% Triton X-100), samples were incubated in blocking solution (1% PBTx plus 10% FBS and 3% BSA) for 1 h at room temperature. Primary antibodies were diluted in blocking solution and applied to samples for 2 days at 4° C. After several washes in 1% PBT, fluorescent secondary antibodies were applied for 2 days at 4° C.
We incubated a neonatal testis in 0.02% BC solution for 10 min (or PBS as a control), washed the testis several times with PBS and cultured for 4 days at the surface/air interface in wells atop an agarose block (FIG. 1). At the end of that time, the testis was fixed and stained for immunofluorescence analysis using an antibody against the Sertoli cell marker, SOX9 (Sry-box 9). […] Although the number of F4/80 positive macrophages was increased in the interstitium of drug treated testis, other cell types in the testis including GFRα1 (GDNF family receptor al) and E-CAD (Cadherin1)-positive SSCs, and 3βHSD (3β-hydroxysteroid dehydrogenase)-positive Leydig cells were spared.

Test [2] deals with Sertoli cells from canine testis. Nature of the test: Depletion of canine Sertoli cells in vitro (testis fragment culture). In kind it is cell-based. The following applies: cultured 3 days. On the procedure:
as §1
Adult mouse testis and canine testis tissues were fixed in 4% (wt/vol) paraformaldehyde in PBS at 4° C. overnight and cryoembedded in OCT compound (Sakura Finetek). Samples were cut into 14-μm-thick cryosections. Incubation with primary antibodies was performed overnight at 4° C., followed by 2 washes, and incubation with secondary antibodies for 1 h at room temperature. Nuclei were counterstained with Hoechst 33342 dye. Samples were mounted on glass slides and imaged with a confocal laser microscope (Zeiss 780).
We used the same procedure as described for the mouse testis to test whether BC could eliminate Sertoli cells from canine testis. Six to 8 […] canine testis tissues were cut into fragments and incubated with 0.02% or 0.03% BC for 10 min (or PBS as a control), washed, and cultured for 3 days (FIG. 4). At the end of that time, the testis was fixed and stained for immunofluorescence analysis using antibodies against SOX9 and the germ cell marker, MVH (mouse vasa homolog). In control tissue, both Sertoli cells and germ cells were detected in seminiferous tubules. […] In control canine testis, GATA-4 positive PMCs and Leydig cells were detected between tubules.

Test [3] concerns SSCs. Nature of the test: SSC kinetics after BC treatment in DND1-EGFP mouse. In kind it is in vivo. As to the method: Host mice were anesthetized. A glass needle was back-loaded with the drug and 0.02% bromophenol blue to track the success of the injection and extent of delivery into the tissue. The mixture was injected into the rete-testis.
We used a DND1 (dead end homolog 1)-EGFP mouse to investigate SSC kinetics after BC treatment. In this transgenic mouse, all SSCs including undifferentiated SSCs and differentiating spermatogonia express EGFP. 0.02% BC (or PBS control) was injected into seminiferous tubules of adult testis. […] Although Sertoli cells and germ cells were lost in drug affected tubules, cord structure, Leydig cells, and PMCs were normal.

Test [4] relates to host spermatogenesis. Kind of test: Donor Sertoli cell transplantation into testis 4 days post BC treatment. In kind it is in vivo, mouse. The following applies: 0.02% BC 4 days before Sox9-ECFP Sertoli cell transplantation; 8 weeks after transplantation. As to the method:
On the day of transplantation, FACS analysis was used to isolate donor Sertoli cells. Testes of Sox9-CFP mouse pups were dissected. Testicular cells were enzymatically dissociated using 1 mg/ml collagenase type IV for 15 minutes followed by incubation in 0.25% trypsin and 1 mM EDTA for 10 min at 37° C. The reaction was stopped by addition of serum and cells were washed twice. The cell suspension was filtered through a 40 μm nylon mesh and resuspended in 10% FBS+DMEM.
10-15 μl of approximately 1×10^6/ml isolated Sertoli cells or 1×10^8/ml (testicular cells) were injected through the rete testis into the seminiferous tubules of a host mouse on day 4 or day 7 after ablation treatment. A glass needle was back-loaded with the cell suspension and 0.04% Trypan blue to track the efficiency of the injection.
To determine whether donor Sertoli cells can efficiently engraft drug-depleted cords, we transplanted Sertoli cells from 6.5-10.5 dpp Sox9-ECFP mouse pups. The host mouse was prepared by injection of the 0.02% BC solution 4 days prior to transplantation. Cells from a neonatal Sox9-ECFP donor testis were dissociated by enzymatic treatment, Sertoli cells were isolated by FACS, and injected into host seminiferous tubules through the rete testis (FIG. 6). […] Full spermatogenesis was detected 8 weeks after transplantation in 2 of 4 engrafted testes.

Regarding benzalkonium chloride [BC], in test [1], the “Sertoli cell elimination (SOX9 immunofluorescence)” value was “specifically eliminated Sertoli cells”; the “effect on other testis cell types (GFRα1 and E-CAD-positive SSCs, 3βHSD-positive Leydig cells)” value was “spared”; the “number of F4/80 positive macrophages in the interstitium” value is listed as “increased”. For the same substance, in test [2] (0.02% BC 10 min), the “Sertoli cell depletion (SOX9)” value is “Sertoli cells were depleted, particularly from the peripheral regions of the tissue”. In test [2] (0.03% BC 10 min), the “SSC survival in Sertoli-depleted seminiferous tubules” value was “some SSCs survived”; the “Sertoli cell depletion (SOX9)” value was “all Sertoli cells were absent”; the “effect on PMCs, SSCs and Leydig cells” value is “caused some PMC depletion, and reduced the number of SSCs and Leydig cells”. Besides, the “SSC loss (DND1-EGFP)” value in test [3] (0.02% BC into seminiferous tubules, three days after Sertoli cells were depleted (7 days post BC)) is “SSCs had also disappeared”. Moreover, in test [3] (0.02% BC, 7 days post treatment), the “cord structure, Leydig cells and PMCs in drug affected tubules” value is on record as “normal”. For the same substance, the “engrafted testes with full spermatogenesis” value in test [4] is reported as 2 of 4.
